Measurements from patent US20100304418A1, “Compositions and Methods for Monitoring Flow Through Fluid Conducting and Containment Systems” (priority 2007, published 2010).

Columns and labels:
seawater bacteria = settings: 28 day seawater test
[1] = Heat treatment of GFP solution with added biotin; settings: 100° C. for 1 hour in GFP solution
Description: The sample has high fluorescence from the GFP. This solution was treated in 2 ways (a) no treatment (b) heat treated (samples were heated to 100° C. for 1 hour in an oven).

[2] = Biodegradation, 28 day seawater test, OECD 306; settings: over 28 days
galactose oxidase [3] = target: T1, galactose oxidase (Gibberella zeae, UniProt P0CS93); type: biochemical
T1 sequence (P0CS93 42-680 limits assumed): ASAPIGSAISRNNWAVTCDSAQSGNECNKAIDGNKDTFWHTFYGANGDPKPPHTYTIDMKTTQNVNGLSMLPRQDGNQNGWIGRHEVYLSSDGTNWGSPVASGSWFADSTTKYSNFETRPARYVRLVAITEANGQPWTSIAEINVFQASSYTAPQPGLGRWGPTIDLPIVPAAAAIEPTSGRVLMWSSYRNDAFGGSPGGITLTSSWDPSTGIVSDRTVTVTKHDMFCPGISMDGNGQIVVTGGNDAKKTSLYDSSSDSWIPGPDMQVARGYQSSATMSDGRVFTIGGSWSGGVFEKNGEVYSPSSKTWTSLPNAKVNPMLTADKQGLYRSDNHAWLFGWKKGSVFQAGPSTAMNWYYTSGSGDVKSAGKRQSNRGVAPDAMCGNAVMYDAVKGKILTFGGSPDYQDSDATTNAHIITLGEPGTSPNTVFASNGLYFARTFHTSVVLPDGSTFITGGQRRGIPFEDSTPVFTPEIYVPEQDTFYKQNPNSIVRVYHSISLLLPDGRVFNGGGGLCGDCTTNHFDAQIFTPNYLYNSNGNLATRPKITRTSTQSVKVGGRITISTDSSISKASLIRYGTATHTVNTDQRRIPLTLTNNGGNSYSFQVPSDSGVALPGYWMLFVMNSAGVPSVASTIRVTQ

galactose oxidase [4] = target: T1, galactose oxidase
[5] = Thermal stability of galactose and derivatives; settings: 20 h
Description: The thermal stability of both galactose and octy-galactose was investigated. Galactose and octyl-galacotse solutions (50 ppm, 30 mL) were prepared in both deionised water and formation water. These solutions were divided and the pH of one water sample and one formation water sample was adjusted to 2 with HCl. 4.5 mL of each solution was placed in a duran bottle with Teflon tape wrapped around the threads to prevent evaporation. The eight samples were heated at 100 or 120° C. for 20 h. The remaining solutions were kept at 4° C. inbetween experiments. Each of the samples was diluted 10-fold before analysis.

[6] = Thermostability of xanthine and hypoxanthine; settings: room temperature and 120° C., 20 h, acidic and neutral pH
Description: These solutions were divided and the pH of one sample of each compound was adjusted to 2 with HCl. 4.5 mL of each solution was placed in a duran bottle with Teflon tape wrapped around the threads to prevent evaporation. The samples were heated at 120° C. for 20 h. The remaining solutions were kept at 25° C. Each of the samples was diluted 10-fold to 7.5 ppm before analysis.

xanthine oxidase = target: T2, xanthine oxidase (Bos taurus, UniProt P80457); test: Limit of detection of xanthine and hypoxanthine, xanthine oxidase / Amplex Red assay
T2 construct: purchased
T2 sequence (P80457 whole entry): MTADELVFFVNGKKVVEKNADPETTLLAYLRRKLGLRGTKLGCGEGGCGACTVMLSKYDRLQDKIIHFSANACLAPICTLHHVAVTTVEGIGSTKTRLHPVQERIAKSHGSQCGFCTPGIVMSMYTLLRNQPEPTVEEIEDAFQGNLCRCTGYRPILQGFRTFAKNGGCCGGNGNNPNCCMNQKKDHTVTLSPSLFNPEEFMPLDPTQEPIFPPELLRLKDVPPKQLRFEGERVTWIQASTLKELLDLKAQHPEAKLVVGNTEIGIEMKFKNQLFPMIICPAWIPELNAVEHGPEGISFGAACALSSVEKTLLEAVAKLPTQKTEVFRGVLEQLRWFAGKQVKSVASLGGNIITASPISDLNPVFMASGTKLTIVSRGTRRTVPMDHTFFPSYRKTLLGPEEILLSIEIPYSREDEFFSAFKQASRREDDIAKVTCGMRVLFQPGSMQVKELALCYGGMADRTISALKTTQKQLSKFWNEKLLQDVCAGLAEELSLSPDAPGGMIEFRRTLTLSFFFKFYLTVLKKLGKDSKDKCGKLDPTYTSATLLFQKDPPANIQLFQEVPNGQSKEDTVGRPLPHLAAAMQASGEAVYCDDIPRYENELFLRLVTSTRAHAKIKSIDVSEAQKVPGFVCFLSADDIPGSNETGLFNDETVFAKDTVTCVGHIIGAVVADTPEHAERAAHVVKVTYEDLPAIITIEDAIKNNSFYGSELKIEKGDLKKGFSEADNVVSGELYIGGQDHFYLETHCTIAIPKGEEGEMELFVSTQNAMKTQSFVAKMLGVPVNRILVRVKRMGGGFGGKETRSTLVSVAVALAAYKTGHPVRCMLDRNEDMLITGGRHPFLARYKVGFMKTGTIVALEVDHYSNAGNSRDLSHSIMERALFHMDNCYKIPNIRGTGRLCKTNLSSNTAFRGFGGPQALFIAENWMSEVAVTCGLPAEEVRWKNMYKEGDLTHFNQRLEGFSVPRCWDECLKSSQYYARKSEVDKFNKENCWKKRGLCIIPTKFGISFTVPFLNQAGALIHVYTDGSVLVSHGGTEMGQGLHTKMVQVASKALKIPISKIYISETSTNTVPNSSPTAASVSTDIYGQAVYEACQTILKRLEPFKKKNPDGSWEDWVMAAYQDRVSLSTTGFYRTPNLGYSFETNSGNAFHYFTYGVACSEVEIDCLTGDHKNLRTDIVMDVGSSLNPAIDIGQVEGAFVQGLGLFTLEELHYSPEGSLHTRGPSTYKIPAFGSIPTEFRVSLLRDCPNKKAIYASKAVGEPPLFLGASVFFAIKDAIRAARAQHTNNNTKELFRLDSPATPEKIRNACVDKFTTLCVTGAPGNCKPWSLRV
Excerpt: This assay uses xanthine oxidase to catalyze the oxidation of hypoxanthine or xanthine, to uric acid and superoxide. The superoxide spontaneously degrades to hydrogen peroxide (H2O2), which reacts stoichiometrically with Amplex® Red in the presence of horseradishperoxidase (HRP). A fluorescent product, resorufin, is generated which can be detected fluorometrically or spectrophotometrically.

## O=C(O)CCCC[C@@H]1SC[C@@H]2NC(=O)N[C@@H]21 [biotin]
Seawater bacteria
  inhibition to seawater bacteria: 42%
250 nM in synthetic formation water, 150° C., 3 kbar, 15 minutes
  drop in fluorescence after heat and pressure: no obvious drop in fluorescence
Dilution series, increasing temperatures up to 150° C., 4 kbar, aqueous phase of produced fluids
  loss of fluorescence due to temperature and pressure: No loss of fluorescence
[1]
  effect of heat treatment on biotin detection: unaffected
[2]
  degradation: 14%

## O=C(CO)[C@@H](O)[C@H](O)[C@H](O)CO [fructose]
Galactose oxidase [3]
  oxidation by galactose oxidase / interference with galactose assay: can be oxidized by galactose oxidase

## O=C[C@H](O)[C@@H](O)[C@@H](O)[C@H](O)CO [galactose]
Galactose oxidase [4]
  detectable concentration range: 0-30 ppm
  limit of detection: ca. 0.3 ppm
[5]; above 100° C. (120° C.)
  thermal stability: a drop in concentration is observed
[5]; to 100° C., water and formation water, pH 6-7 and pH 2
  thermal stability: sufficiently stable

## O=c1[nH]cnc2nc[nH]c12 [hypoxanthine]
[6]
  thermal stability: stable
Xanthine oxidase
  limit of detection: > 0.02 ppm

## O=c1[nH]c(=O)c2[nH]cnc2[nH]1 [xanthine]
Xanthine oxidase
  limit of detection: less than 0.16 ppm
